Results: ChEMBL document CHEMBL1147595, “Design and synthesis of photoactivatable aryl diketo acid-containing HIV-1 integrase inhibitors as potential affinity probes” (Bioorg Med Chem Lett, 2004)
Where “and” joins values, the source holds several entries; their conditions need not be identical. Identical values can stand only once.

Columns and labels:
[1] = target: T1, Human immunodeficiency virus type 1 integrase (Human immunodeficiency virus 1, UniProt Q7ZJM1); assay: Inhibition of Integrase (strand transfer) as measured in an in vitro assay
[2] = target: T1, Human immunodeficiency virus type 1 integrase; assay: Inhibition of integrase catalyzed strand transfer (ST) as measured in an in vitro assay
[3] = target: T1, Human immunodeficiency virus type 1 integrase; assay: Inhibition of Integrase (3'-processing) as measured in an in vitro assay
[4] = target: T1, Human immunodeficiency virus type 1 integrase; assay: Inhibition of Integrase catalyzed strand transfer (ST) as measured in an in vitro assay

T1 sequence (Q7ZJM1 whole entry): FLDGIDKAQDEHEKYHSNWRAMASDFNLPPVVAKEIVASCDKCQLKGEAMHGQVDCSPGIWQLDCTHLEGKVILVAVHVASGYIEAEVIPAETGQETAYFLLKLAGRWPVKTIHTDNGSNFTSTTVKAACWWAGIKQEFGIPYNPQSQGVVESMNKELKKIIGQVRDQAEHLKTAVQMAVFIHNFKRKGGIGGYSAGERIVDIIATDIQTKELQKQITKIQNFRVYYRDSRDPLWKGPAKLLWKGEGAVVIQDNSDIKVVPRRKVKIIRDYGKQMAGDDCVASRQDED

IC50 [1]	IC50 [2]	IC50 [3]	IC50 [4]	Structure (SMILES)
< 0.1 µM				O=C(O)C(=O)CC(=O)c1cccc(Cc2ccccc2)c1
	2.7 µM	> 100 µM	2.1 µM	O=C(O)C(=O)CC(=O)c1cccc(C(=O)c2ccccc2)c1
		> 100 µM	5.3 µM and 5.2 µM	[N-]=[N+]=Nc1cccc(C(=O)CC(=O)C(=O)O)c1
		> 100 µM	19 µM and 29 µM	O=C(O)C(=O)CC(=O)c1cccc(OCc2ccc(C(=O)c3ccccc3)cc2)c1
